Measured values taken from US20220330549A1, “USE OF N-BENZYLBENZAMIDE-BASED COMPOUND AS HERBICIDE” (Northwest A&F University, priority 2020, published 2022).

Assays:
Format in all cases: in vivo
[1] = test system: Cyperaceae; test: Post-emergence herbicidal activity test in a paddy field; design: key: level scale; higher level = more weed left vs blank control; details: 150 g a.i./ha (penoxsulam control 250 g(a.i.)/h)
Outline: (§1)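 Efficacy was visually estimated 15 and 30 days after spraying, grading weed coverage relative to an untreated neighbouring plot (level 2 = 0 to 2.5%, level 9 = 67.6 to 100%). Treatments were 150 g(a.i.)/ha from 10% emulsifiable concentrates applied at the 4-5 leaf rice stage, four repeats of 50 m^2 each.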

[2] = test system: Gramineae; test: as above; design: key: level scale; higher level = more weed left vs blank control; details: 150 g a.i./ha (penoxsulam control 250 g(a.i.)/h)
Outline: as §1

[3] = test system: Broadleaf weed; test: as above; design: key: level scale; higher level = more weed left vs blank control; details: 150 g a.i./ha (penoxsulam control 250 g(a.i.)/h)
Outline: as §1

[4] = test system: Humulus scandens; test: Herbicidal activity test for indoor pre-emergence soil treatment; details: 150 g a.i./ha, visual inspection 21 days after treatment
Outline: (§2)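 Compounds were formulated as 10% emulsifiable concentrates and sprayed onto the soil 24 h after sowing, at 150 g(a.i.)/ha. Soil was sandy loam (≤2% organic matter), with seeds under 0.5–2.0 cm cover, per NY/T 1155.3-2006. Visual 1–9 ratings relative to blank control were made after 21 days.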

[5] = test system: Humulus scandens; test: Herbicidal activity test for indoor post-emergence spraying on stems and leaves; design: key: grade level by weed remaining vs blank control, e.g. 5 = 10.1-15%; details: 150 g a.i./ha, visual inspection 21 days after treatment
Outline: (§3)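 Visual inspection at 21 days after treatment gave a level rating, each level defined as a percentage band of the weed remaining in the blank control area. Plants were sprayed on stems and leaves after emergence, following NY/T 1155.4-2006.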

[6] = test system: Barnyard grass; test: as above; design: key: grade level by weed remaining vs blank control, e.g. 5 = 10.1-15%; details: 150 g a.i./ha, visual inspection 21 days after treatment
Outline: as §3

[7] = test system: Digitaria sanguinalis; test: as above; design: key: grade level by weed remaining vs blank control, e.g. 5 = 10.1-15%; details: 150 g a.i./ha, visual inspection 21 days after treatment
Outline: as §3

[8] = test system: green bristlegrass; test: as above; design: key: grade level by weed remaining vs blank control, e.g. 5 = 10.1-15%; details: 150 g a.i./ha, visual inspection 21 days after treatment
Outline: as §3

[9] = test system: Piemarker; test: as above; design: key: grade level by weed remaining vs blank control, e.g. 5 = 10.1-15%; details: 150 g a.i./ha, visual inspection 21 days after treatment
Outline: as §3

[10] = test system: Amaranthus retroflexus; test: as above; design: key: grade level by weed remaining vs blank control, e.g. 5 = 10.1-15%; details: 150 g a.i./ha, visual inspection 21 days after treatment
Outline: as §3

[11] = test system: Digitaria sanguinalis; test: Herbicidal activity test for indoor pre-emergence soil treatment; design: key: 1-9 levels; higher = more weed remaining vs blank control; details: 150 g a.i./ha, visual inspection 21 days after treatment
Outline: as §2

[12] = test system: Amaranthus retroflexus; test: as above; design: key: 1-9 levels; higher = more weed remaining vs blank control; details: 150 g a.i./ha, visual inspection 21 days after treatment
Outline: as §2

[13] = test system: nutgrass flatsedge; test: Field test for weed control in a corn field; details: 150 g a.i./ha, after treatment
Outline: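 A corn field efficacy trial following GB/T 17980.42-2000 assessed post-emergence control of nutgrass flatsedge. Test compounds were formulated as 10% emulsifiable concentrates, diluted in water, and sprayed at 150 g(a.i.)/ha when the corn had 2 to 5 leaves. Each treatment had 4 replicates on 20 m^2 plots. Herbicidal activity was graded on a 1-9 scale by damage symptoms and severity.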

[14] = test system: Barnyard grass; test: Field test for weed control in a corn field; details: 150 g a.i./ha, 30 days after treatment
Outline: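 Corn-field efficacy trial following GB/T 17980.42-2000. Test compounds were formulated as 10% emulsifiable concentrates, diluted in water and sprayed post-emergence at 150 g(a.i.)/ha when corn had 2 to 5 leaves. Each treatment was replicated 4 times on 20 m^2 plots. Barnyard grass control was rated on a 1-9 damage scale.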

[15] = test system: Digitaria sanguinalis; test: Field test for weed control in a corn field; details: 150 g a.i./ha, after treatment
Outline: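 Field trial in a corn field following GB/T 17980.42-2000. Test compounds were formulated as 10% emulsifiable concentrates, diluted in water and sprayed post-emergence at 150 g(a.i.)/ha when corn had 2 to 5 leaves, with 4 replicates on 20 m^2 plots. Control of Digitaria sanguinalis was scored on a 1-9 scale based on weed damage relative to the untreated blank area.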

[16] = test system: Solanum nigrum; test: Field test for weed control in a corn field; details: 150 g a.i./ha, 30 days after treatment
Outline: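 Post-emergence weed control was tested in a corn field following GB/T 17980.42-2000. Compounds were made into 10% emulsifiable concentrates, diluted in water and sprayed at 150 g(a.i.)/ha when corn had 2 to 5 leaves after sowing, in 20 m^2 plots with 4 replicates. Effects on Solanum nigrum were graded on a 1-9 scale relative to the blank control area.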

[17] = test system: green bristlegrass; test: Field test for weed control in a corn field; details: 150 g a.i./ha, after treatment
Outline: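 Post-emergence weed control was tested in a corn field following GB/T 17980.42-2000. When the corn had 2 leaves to 5 leaves after sowing, 10% emulsifiable concentrates diluted in water were sprayed at 150 g(a.i.)/ha on 20 m^2 plots, four replicates per treatment. Effects on green bristlegrass were scored on a 1-9 damage scale relative to the blank control area.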

[18] = test system: Acalypha australis; test: Field test for weed control in a corn field; details: 150 g a.i./ha, after treatment
Outline: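 Post-emergence field trial in a corn field following GB/T 17980.42-2000. Test compounds were formulated as 10% emulsifiable concentrates, diluted in water, and sprayed at 150 g(a.i.)/ha when corn had 2 to 5 leaves, with 4 replicates on 20 m^2 plots. Mesotrione 25% oil dispersion served as the control agent. Weed control was scored on a 1-9 scale.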

[19] = test system: goosegrass; test: Field test for weed control in a corn field; details: 150 g a.i./ha, after treatment
Outline: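 Weed control efficacy against goosegrass was tested in a corn field following GB/T 17980.42-2000. Compounds formulated as 10% emulsifiable concentrates were diluted in water and sprayed post-emergence at 150 g(a.i.)/ha when corn had 2 to 5 leaves, with 4 replicates of 20 m^2 plots. Herbicidal activity was rated on a 1-9 scale by damage symptoms and severity.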

[20] = test system: Convolvulus arvensis; test: Field test for weed control in a corn field; details: 150 g a.i./ha, after treatment
Outline: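 Field trial of weed control against Convolvulus arvensis in corn, run following GB/T 17980.42-2000. Test agents were formulated as 10% emulsifiable concentrates and sprayed in water at 150 g(a.i.)/ha when corn plants had 2 to 5 leaves. Each treatment was replicated 4 times on 20 m^2 plots, and 25% mesotrione oil dispersion served as the control agent.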

[21] = test system: Chenopodium album; test: Field test for weed control in a corn field; details: 150 g a.i./ha, after treatment
Outline: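 A corn-field efficacy trial following GB/T 17980.42-2000 tested post-emergence control of Chenopodium album. Test compounds formulated as 10% emulsifiable concentrates were diluted in water and sprayed at 150 g(a.i.)/ha when the corn had 2 leaves to 5 leaves, on 20 m^2 plots with 4 replicates. Herbicidal activity was rated on a 1-9 scale by damage symptoms and severity.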

[22] = test system: Amaranthus retroflexus; test: Field test for weed control in a corn field; details: 150 g a.i./ha, 30 days after treatment
Outline: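 Field efficacy trial in a corn field following GB/T 17980.42-2000. Test compounds were formulated as 10% emulsifiable concentrates, diluted in water and sprayed post-emergence when corn had 2 to 5 leaves. Each treatment covered 20 m^2 with 4 replicates. A 25% mesotrione oil dispersion served as control. Damage to Amaranthus retroflexus was rated on a 1-9 scale against untreated blank plots.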

[23] = test system: Portulaca oleracea; test: Field test for weed control in a corn field; details: 150 g a.i./ha, after treatment
Outline: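 Field efficacy trial in corn following GB/T 17980.42-2000. Test compounds were prepared as 10% emulsifiable concentrates, diluted in water, and sprayed at 150 g(a.i.)/ha when corn had 2 to 5 leaves after sowing. Plots were 20 m^2 with 4 replicates per treatment. Herbicidal activity was scored on a 1-9 scale from weed damage symptoms and severity.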

[24] = test system: Barnyard grass; test: Herbicidal activity test for indoor pre-emergence soil treatment; design: key: level 1-9; higher = more weed remaining vs blank control; details: 150 g a.i./ha, visual inspection 21 days after treatment
Outline: as §2

[25] = test system: green bristlegrass; test: as above; design: key: level 1-9; higher = more weed remaining vs blank control; details: 150 g a.i./ha, visual inspection 21 days after treatment
Outline: as §2

[26] = test system: Piemarker; test: as above; design: key: level 1-9; higher = more weed remaining vs blank control; details: 150 g a.i./ha, visual inspection 21 days after treatment
Outline: as §2

Row | SMILES | Herbicidal activity 15 days after treatment Cyperaceae [1] | Herbicidal activity 30 days after treatment Cyperaceae [1] | Herbicidal activity 15 days after treatment Gramineae [2] | Herbicidal activity 30 days after treatment Gramineae [2] | Herbicidal activity 15 days after treatment Broadleaf weed [3] | Herbicidal activity 30 days after treatment Broadleaf weed [3] | Herbicidal Activity Humulus scandens [4] | Herbicidal Activity Humulus scandens [5] | Herbicidal Activity Barnyard grass [6] | Herbicidal Activity Digitaria sanguinalis [7] | Herbicidal Activity Green bristlegrass [8] | Herbicidal Activity Piemarker [9] | Herbicidal Activity Amaranthus retroflexus [10] | Herbicidal Activity Digitaria sanguinalis [11] | Herbicidal Activity Amaranthus retroflexus [12] | Post-emergence weed control effect, Nutgrass flatsedge [13] | Post-emergence weed control effect, Barnyard grass [14] | Post-emergence weed control effect, Digitaria sanguinalis [15] | Post-emergence weed control effect, Solanum nigrum [16] | Post-emergence weed control effect, Green bristlegrass [17] | other results
1 | COc1ncccc1C(=O)NCc1cc(F)cc(Cl)c1 [Compound A89] | 1 | 1 | 1 | 1 | 1 | 1 | 2 (equivalent to 0 to 2.5% of the weed in the blank control area) | 1 | 1 | 1 | 1 | 1 | 1 | 2 (equivalent to 0 to 2.5% of the weed in the blank control area) | 1 | 2 (equivalent to 0 to 2.5% of the weed in the blank control area) | 1 | 2 (equivalent to 0 to 2.5% of the weed in the blank control area) | 2 (equivalent to 0 to 2.5% of the weed in the blank control area) | 1 | Post-emergence weed control effect, Acalypha australis [18]: 1; Post-emergence weed control effect, Goose grass [19]: 2 (equivalent to 0 to 2.5% of the weed in the blank control area); Post-emergence weed control effect, Convolvulus arvensis [20]: 1; Post-emergence weed control effect, Chenopodium album [21]: 1; Post-emergence weed control effect, Amaranthus retroflexus [22]: 1; Post-emergence weed control effect, Portulaca oleracea [23]: 1; Herbicidal Activity Barnyard grass [24]: 1; Herbicidal Activity Green bristlegrass [25]: 1; Herbicidal Activity Piemarker [26]: 1
2 | Cc1cccc(C(=O)NCc2cccc(F)c2)c1 [Compound B01] | 2 (equivalent to 0 to 2.5% of the weed in the blank control area) | 2 (equivalent to 0 to 2.5% of the weed in the blank control area) | 2 (equivalent to 0 to 2.5% of the weed in the blank control area) | 2 (equivalent to 0 to 2.5% of the weed in the blank control area) | 1 | 2 (equivalent to 0 to 2.5% of the weed in the blank control area) | 2 (equivalent to 0 to 2.5% of the weed in the blank control area) | 1 | 2 (equivalent to 0 to 2.5% of the weed in the blank control area) | 1 | 1 | 1 | 1 | 1 | 1 | 2 (equivalent to 0 to 2.5% of the weed in the blank control area) | 1 | 1 | 2 (equivalent to 0 to 2.5% of the weed in the blank control area) | 1 | Post-emergence weed control effect, Acalypha australis [18]: 2 (equivalent to 0 to 2.5% of the weed in the blank control area); Post-emergence weed control effect, Goose grass [19]: 1; Post-emergence weed control effect, Convolvulus arvensis [20]: 2 (equivalent to 0 to 2.5% of the weed in the blank control area); Post-emergence weed control effect, Chenopodium album [21]: 1; Post-emergence weed control effect, Amaranthus retroflexus [22]: 1; Post-emergence weed control effect, Portulaca oleracea [23]: 1; Herbicidal Activity Barnyard grass [24]: 2 (equivalent to 0 to 2.5% of the weed in the blank control area); Herbicidal Activity Green bristlegrass [25]: 1; Herbicidal Activity Piemarker [26]: 2 (equivalent to 0 to 2.5% of the weed in the blank control area)
